ChEMBL document CHEMBL4000244, “Probing A-form DNA: A fluorescent aminosugar probe and dual recognition by anthraquinone-neomycin conjugates” (Bioorg Med Chem, 2017)

Legend:
[1] = Binding affinity to 5'-GCCCCGCG-3' DNA hairpin assessed as change in fluorescence intensity at 1 uM after 45 mins by fluorescence quenching analysis relative to control
[2] = Binding affinity to 5'-GCGCCCCC-3' DNA hairpin assessed as change in fluorescence intensity at 1 uM after 45 mins by fluorescence quenching analysis relative to control
[3] = Binding affinity to 5'-GCGGGCCC-3' DNA hairpin assessed as change in fluorescence intensity at 1 uM after 45 mins by fluorescence quenching analysis relative to control
[4] = Binding affinity to 5'-GGGGCCCG-3' DNA hairpin assessed as change in fluorescence intensity at 1 uM after 45 mins by fluorescence quenching analysis relative to control
[5] = Binding affinity to 5'-CCCCCCGC-3' DNA hairpin assessed as change in fluorescence intensity at 1 uM after 45 mins by fluorescence quenching analysis relative to control
[6] = Binding affinity to 5'-CGCCGCCC-3' DNA hairpin assessed as change in fluorescence intensity at 1 uM after 45 mins by fluorescence quenching analysis relative to control
[7] = Binding affinity to 5'-CCGGCGGC-3' DNA hairpin assessed as change in fluorescence intensity at 1 uM after 45 mins by fluorescence quenching analysis relative to control
[8] = Binding affinity to 5'-CCGGGCCG-3' DNA hairpin assessed as change in fluorescence intensity at 1 uM after 45 mins by fluorescence quenching analysis relative to control
[9] = Binding affinity to 5'-GGCCGGCG-3' DNA hairpin assessed as change in fluorescence intensity at 1 uM after 45 mins by fluorescence quenching analysis relative to control
[10] = Binding affinity to 5'-CCGGCGCG-3' DNA hairpin assessed as change in fluorescence intensity at 1 uM after 45 mins by fluorescence quenching analysis relative to control
[11] = Binding affinity to 5'-CGGCGGGG-3' DNA hairpin assessed as change in fluorescence intensity at 1 uM after 45 mins by fluorescence quenching analysis relative to control
[12] = Binding affinity to 5'-CCGCCCCC-3' DNA hairpin assessed as change in fluorescence intensity at 1 uM after 45 mins by fluorescence quenching analysis relative to control
[13] = Binding affinity to 5'-GGGCCCGG-3' DNA hairpin assessed as change in fluorescence intensity at 1 uM after 45 mins by fluorescence quenching analysis relative to control
[14] = Binding affinity to 5'-CGCGGCCG-3' DNA hairpin assessed as change in fluorescence intensity at 1 uM after 45 mins by fluorescence quenching analysis relative to control
[15] = Binding affinity to 5'-GGCCCCCG-3' DNA hairpin assessed as change in fluorescence intensity at 1 uM after 45 mins by fluorescence quenching analysis relative to control
[16] = Binding affinity to 5'-CCGGGGGC-3' DNA hairpin assessed as change in fluorescence intensity at 1 uM after 45 mins by fluorescence quenching analysis relative to control
[17] = Binding affinity to 5'-CCGCGGCC-3' DNA hairpin assessed as change in fluorescence intensity at 1 uM after 45 mins by fluorescence quenching analysis relative to control
[18] = Binding affinity to 5'-CGGCGCCC-3' DNA hairpin assessed as change in fluorescence intensity at 1 uM after 45 mins by fluorescence quenching analysis relative to control
[19] = Binding affinity to 5'-CCGGCCGC-3' DNA hairpin assessed as change in fluorescence intensity at 1 uM after 45 mins by fluorescence quenching analysis relative to control
[20] = Binding affinity to 5'-CCGCGGCG-3' DNA hairpin assessed as change in fluorescence intensity at 1 uM after 45 mins by fluorescence quenching analysis relative to control
[21] = Binding affinity to 5'-GGGGGGCC-3' DNA hairpin assessed as change in fluorescence intensity at 1 uM after 45 mins by fluorescence quenching analysis relative to control
[22] = Binding affinity to 5'-GGGGGCGC-3' DNA hairpin assessed as change in fluorescence intensity at 1 uM after 45 mins by fluorescence quenching analysis relative to control
[23] = Binding affinity to 5'-CCGGGCGG-3' DNA hairpin assessed as change in fluorescence intensity at 1 uM after 45 mins by fluorescence quenching analysis relative to control
[24] = Binding affinity to 5'-GGGCCGGG-3' DNA hairpin assessed as change in fluorescence intensity at 1 uM after 45 mins by fluorescence quenching analysis relative to control
[25] = Binding affinity to 5'-GGGCGCCC-3' DNA hairpin assessed as change in fluorescence intensity at 1 uM after 45 mins by fluorescence quenching analysis relative to control
[26] = Binding affinity to 5'-CGGCGGCC-3' DNA hairpin assessed as change in fluorescence intensity at 1 uM after 45 mins by fluorescence quenching analysis relative to control
[27] = Binding affinity to 5'-CCGGGGCG-3' DNA hairpin assessed as change in fluorescence intensity at 1 uM after 45 mins by fluorescence quenching analysis relative to control
[28] = Binding affinity to 5'-GGCGCGCG-3' DNA hairpin assessed as change in fluorescence intensity at 1 uM after 45 mins by fluorescence quenching analysis relative to control
[29] = Binding affinity to 5'-GGGCGGGG-3' DNA hairpin assessed as change in fluorescence intensity at 1 uM after 45 mins by fluorescence quenching analysis relative to control
[30] = Binding affinity to 5'-CGCCCCCG-3' DNA hairpin assessed as change in fluorescence intensity at 1 uM after 45 mins by fluorescence quenching analysis relative to control
[31] = Binding affinity to 5'-CCGCGCGG-3' DNA hairpin assessed as change in fluorescence intensity at 1 uM after 45 mins by fluorescence quenching analysis relative to control
[32] = Binding affinity to 5'-CCGGCCGG-3' DNA hairpin assessed as change in fluorescence intensity at 1 uM after 45 mins by fluorescence quenching analysis relative to control
[33] = Binding affinity to 5'-GGGCCCCG-3' DNA hairpin assessed as change in fluorescence intensity at 1 uM after 45 mins by fluorescence quenching analysis relative to control
[34] = Binding affinity to 5'-GGGCGGGC-3' DNA hairpin assessed as change in fluorescence intensity at 1 uM after 45 mins by fluorescence quenching analysis relative to control
[35] = Binding affinity to 5'-GCCCCCGG-3' DNA hairpin assessed as change in fluorescence intensity at 1 uM after 45 mins by fluorescence quenching analysis relative to control
[36] = Binding affinity to 5'-CCGCGCCC-3' DNA hairpin assessed as change in fluorescence intensity at 1 uM after 45 mins by fluorescence quenching analysis relative to control

With NCC1O[C@H](O[C@H]2[C@@H](O)[C@H](O[C@@H]3[C@@H](O)[C@H](N)C[C@H](N)[C@H]3O[C@H]3O[C@H](CN)[C@@H](O)[C@H](O)[C@H]3N)O[C@@H]2CSCCNC(=O)CCSCC(=O)Nc2ccc(-c3c4ccc(=O)cc-4oc4cc(O)ccc34)c(C(=O)O)c2)[C@H](N)[C@@H](O)[C@@H]1O (stereo partly specified) the Activity [1] was 36.7%, the Activity [2] was 45.7% and the Activity [3] was 47.8%. For the same compound, the Activity [4] was 29.7%, the Activity [5] was 30.2% and the Activity [6] was 44.6%. The Activity [7] was 47.4%, the Activity [8] was 40.2% and the Activity [9] was 47.6%. It also gave an Activity [10] of 45.4%, an Activity [11] of 50.8% and an Activity [12] of 41.4%. For the same compound, the Activity [13] was 25.4%, the Activity [14] was 42% and the Activity [15] was 16%. It also gave an Activity [16] of 38.4%, an Activity [17] of 50.6% and an Activity [18] of 45.2%. For the same compound, the Activity [19] was 57.7%, the Activity [20] was 50.1% and the Activity [21] was 32.2%. The Activity [22] was 35.6%, the Activity [23] was 50.1% and the Activity [24] was 37.5%. It also gave an Activity [25] of 65.9%, an Activity [26] of 43.8% and an Activity [27] of 37.5%. For the same compound, the Activity [28] was 57.1%, the Activity [29] was 45.3% and the Activity [30] was 31.8%. For the same compound, the Activity [31] was 47.2%, the Activity [32] was 49.1% and the Activity [33] was 18.1%. For the same compound, the Activity [34] was 44.1%, the Activity [35] was 16% and the Activity [36] was 52.4%.
